Assay [1] has as its target T1, mcr-1 protein (Escherichia coli, UniProt A0A0R6L508).
T1 construct: gene mcr1; mcr-1 amplified from K. pneumoniae ZJ02, pET28a(+) NheI/XhoI, E. coli BL21(DE3), Ni-NTA; tag removal not mentioned
Description: nano differential scanning fluorimetry. Type of assay: binding. Conditions: apigenin 32 µg/mL, mcr-1 100 µg/mL, PBS, 20 min incubation, 25-95 °C at 5 °C/min; Tm lowered (destabilised). A general note: In DSF a fluorescence change marks the thermal transition of the protein.

Assay [2] addresses T1, mcr-1 protein. Briefly: microscale thermophoresis. Type of assay: binding. Background: Microscale thermophoresis detects binding through changes in fluorescence in a small temperature gradient.

The Kd is a measure of binding affinity in units of concentration. High values mean weaker binding, low ones tighter binding.

T1 sequence (A0A0R6L508 whole entry): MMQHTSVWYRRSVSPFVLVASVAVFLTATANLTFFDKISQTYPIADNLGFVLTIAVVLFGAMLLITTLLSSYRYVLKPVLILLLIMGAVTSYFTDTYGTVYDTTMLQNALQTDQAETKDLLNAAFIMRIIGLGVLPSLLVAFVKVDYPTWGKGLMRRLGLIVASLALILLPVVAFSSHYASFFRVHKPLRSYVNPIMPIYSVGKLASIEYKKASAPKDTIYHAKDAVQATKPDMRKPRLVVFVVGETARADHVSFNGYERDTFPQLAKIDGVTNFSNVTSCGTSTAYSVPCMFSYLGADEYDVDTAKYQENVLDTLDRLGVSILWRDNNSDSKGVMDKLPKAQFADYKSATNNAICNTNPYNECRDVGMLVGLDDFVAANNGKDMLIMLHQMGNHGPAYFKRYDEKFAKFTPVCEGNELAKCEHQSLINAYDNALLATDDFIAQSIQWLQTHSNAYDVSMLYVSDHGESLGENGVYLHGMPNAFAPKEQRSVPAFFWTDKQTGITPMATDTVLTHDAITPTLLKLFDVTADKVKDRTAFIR

Take `O=c1cc(-c2ccc(O)cc2)oc2cc(O)cc(O)c12` [apigenin]: the Tm decrease in assay [1] turned out to be 5.7 °C. In assay [2], this compound showed a Kd of 4.35 µM.

(Values after paper PMC11448233, “High-throughput screening identification of apigenin that reverses the colistin resistance of mcr-1-positive pathogens” (Microbiology Spectrum, 2024).)
